{
  "source": "patent EP4796125A1",
  "about": "“TREATMENT OF PATIENT WITH NEGATIVE P53 GENE MUTATION, POSITIVE KRAS GENE MUTATION AND POSITIVE BRCA MUTATION” (Ascentawits Pharmaceuticals, Ltd., priority 2023, dated 2025)",
  "key": {"H460 cells": {"test_system": "H460 cells", "assay": "Applicant's previous cancer cell proliferation inhibition test", "type": "cell-based", "conditions": "Homo sapiens, NCI-H460, single drug, applicant's previous test data"}, "HPAF-II cells": {"test_system": "HPAF-II cells", "assay": "Applicant's previous cancer cell proliferation inhibition test", "type": "cell-based", "conditions": "Homo sapiens, single drug, applicant's previous test data"}, "H460 P53 KO #12": {"test_system": "H460 P53 KO #12", "assay": "In vitro proliferation under normoxia (CTG, 72 hours), Example 26", "type": "cell-based, human", "conditions": "Table 21", "procedure": "(§1) • 1) H460 cell suspension was added to a 96-well plate (100 µL per well), with a cell density of 2000 cells/well. • 2) The cells were cultured overnight in a 37°C, 5% CO2 incubator. • 3) Compound Treatment\n(§2) Monotherapy: 24 hours after cell plating, each well was supplemented with 99.5 µL of growth medium. Then, 0.5 µL of test compounds at different concentrations was added. The plate was gently shaken to ensure even mixing, and then placed in a 37°C, 5% CO2 incubator.\n(§3) Combination therapy: 24 hours after cell plating, each well was supplemented with 99 µL of growth medium. Then, 0.5 µL of the combination compound Nutlin-3 was added. The plate was gently shaken to ensure even mixing, and then placed in an incubator for 2 hours. Then, 0.5 µL of test compounds at different concentrations was added. The plate was gently shaken to ensure even mixing, and then placed in a 37°C, 5% CO2 incubator. • 4) The cell plate was placed in the incubator for 72 hours. • 5) The cell plate to be tested was placed at room temperature and equilibrated for 30 minutes, and 100 µL of medium was discarded from each well. • 6) 25 µL of CTG reagent was added to each well, placed on a fast shaker to shake for 2 minutes, and placed at room temperature for 30 minutes (protected from light). • 7) The chemiluminescence signal value was read using a multifunctional microplate reader with a reading time of 1000 ms. • 8) IC50 values were calculated using Graph Pad Prism 5 software.\n(§4) The p53 CRISPR/Cas9 KO plasmid (human) and p53 HDR plasmid (human) were purchased from Santa Cruz Company to construct H460 P53 KO cell lines, namely p53 knockout H460 cell lines. Three groups of H460 P53 KO cell lines were constructed and designated as H460 P53 KO # 1, H460 P53 KO # 7, and H460 P53 KO # 12.\n(§5) The process for constructing p53 gene knockout cells is briefly described as follows: • H460 cells were plated in 6-well plates with 1 × 10^6 cells/well. • H460 cells were co-transfected with p53 CRISPR/Cas9 KO plasmid (h) (sc-416469) and p53 HDR plasmid (h) (sc-416469-HDR): 125 µL Opti-MEM + 1.25 µg each of the two plasmids + 5 µL P3000; 125 µL Opti-MEM + 15 µL liposome 3000 (increase volume, expected to increase transfection efficiency); they were co-incubated for 15 minutes, and then were added dropwise to the culture medium and mixed well.\n(§6) After 48 h, 2 µg/mL puromycin was added for screening.\n(§7) Two days later, the medium was replaced with fresh 1640 medium containing 1 µg/mL puromycin, and the medium was changed every two days.\n(§8) When the cell colonies grew to a sufficient size, single colonies were picked and cultured.\n(§9) When the cell number is sufficient, samples were collected for WB identification of the colonies. Colonies with no p53 expression were the p53 knockout H460 cell clones.\n(§10) For the experimental procedures of this Example, please refer to the Experimental Procedure Overview in the section \"Effects of compounds on in vitro H460 cell proliferation under normoxia\" in Example 18.\n(§11) Monotherapy: Compounds AST-3424/AST were separately administered in H460 and H460 P53 KO cell lines, respectively.\n(§12) Combination therapy: Compounds AST-3424/AST were respectively used in combination with AST-3021, and respectively administeredin H460 and H460 P53 KO cell lines.\n(§13) H460 P53 KO cell lines, i.e. H460 P53 KO # 1, H460 P53 KO # 7, H460 P53 KO # 12 cell lines, were used in experiments, respectively."}, "H460 P53 KO #1": {"test_system": "H460 P53 KO #1", "assay": "In vitro proliferation under normoxia (CTG, 72 hours), Example 26", "type": "cell-based, human", "conditions": "Table 21", "procedure": "as §1, §2, §3, §4, §5, §6, §7, §8, §9, §10, §11, §12, §13"}, "H460 P53 KO #7": {"test_system": "H460 P53 KO #7", "assay": "In vitro proliferation under normoxia (CTG, 72 hours), Example 26", "type": "cell-based, human", "conditions": "Table 21", "procedure": "as §1, §2, §3, §4, §5, §6, §7, §8, §9, §10, §11, §12, §13"}, "A549 cells": {"test_system": "A549 cells", "assay": "Cell cycle G2/M arrest, PI staining and flow cytometry", "type": "cell-based", "conditions": "0.3-9 nM AST-3424 ± 5 µM Nutlin-3 (AST-3424 pre-treatment 2 hours), second experiment (Figure 10)", "procedure": "The remaining operations were similar to those of the above experiment, and the compound treatment was as follows:\n• For H460 cell line, 1% DMSO, adding 5 µM Nutlin-3 for treatment for 22 hours, adding 0.03 nM AST-3424 for treatment for 24 hours, adding 0.1 nM AST-3424 for treatment for 24 hours, adding 0.3 nM AST-3424 for treatment for 24 hours, and adding 1 nM AST-3424 for treatment for 24 hours; • For A549 cell line, 1% DMSO, adding 5 µM Nutlin-3 for treatment for 22 hours, adding 0.3 nM AST-3424 for treatment for 24 hours, adding 1 nM AST-3424 for treatment for 24 hours, adding […] AST-3424 for treatment for 24 hours.\nFor A549 cell line, • Adding 0.3 nM AST-3424 for pre-treatment for 2 hours, and then adding 5 µM Nutlin-3 for co-treatment for 22 hours; • Adding 1 nM AST-3424 for pre-treatment for 2 hours, and then adding 5 µM Nutlin-3 for co-treatment for 22 hours; • Adding 3 nM AST-3424 for pre-treatment for 2 hours, and then adding 5 µM Nutlin-3 for co-treatment for 22 hours; • Adding 9 nM AST-3424 for pre-treatment for 2 hours, and then adding 5 µM Nutlin-3 for co-treatment for 22 hours."}},
  "data": [
    {"smiles": "C[C@H](OP(=O)(N1CC1)N1CC1)c1ccc([N+](=O)[O-])c(Oc2cccc(C(=O)N(C)C)c2)c1", "note": "[AST-3424]", "values": [
      {"measurement": "IC50", "setting": "H460 cells", "result": 0.47, "unit": "nM"},
      {"measurement": "IC50", "setting": "HPAF-II cells", "result": 107, "unit": "nM"},
      {"measurement": "IC50", "setting": "H460 P53 KO #12; Homo sapiens, NCI-H460, H460 P53 KO # 12, AST-3424 alone or + 3 µM AST-3021", "result": 1.99, "unit": "nM"},
      {"measurement": "Ratio (monotherapy), knockout/wild", "setting": "H460 P53 KO #12; IC50 in H460 P53 KO # 12 / H460 WT", "result": 8.65},
      {"measurement": "IC50", "setting": "H460 P53 KO #1; Homo sapiens, NCI-H460, H460 P53 KO # 1, AST-3424 alone or + 3 µM AST-3021", "result": 11.3, "unit": "nM"},
      {"measurement": "Ratio (monotherapy), knockout/wild", "setting": "H460 P53 KO #1; IC50 in H460 P53 KO # 1 / H460 WT", "result": 49.13},
      {"measurement": "IC50", "setting": "H460 P53 KO #7; Homo sapiens, NCI-H460, H460 P53 KO # 7, AST-3424 alone or + 3 µM AST-3021", "result": 23.1, "unit": "nM"},
      {"measurement": "Ratio (monotherapy), knockout/wild", "setting": "H460 P53 KO #7; IC50 in H460 P53 KO # 7 / H460 WT", "result": 100.43},
      {"measurement": "G2/M cell cycle arrest", "setting": "A549 cells", "result": "induces concentration-dependent G2/M cell cycle arrest"}
    ]}
  ]
}
